Key:
Format in all cases: cell-based
[1] = test system: E. coli BT3(ΔPPO) transformed with Auxenochlorella protothecoides ApPPO1 wild type, SEQ ID NO: 1; experiment: Herbicide tolerance test in PPO-deficient E. coli BT3(ΔPPO), growth on plates; details: ApPPO1 WT, Table 7; light, 37° C., 16 to 20 hours; vs wild type at highest herbicide concentration
Protocol: (§1) Then, the extent of tolerance was evaluated.

[2] = test system: E. coli BT3(ΔPPO) transformed with Auxenochlorella protothecoides ApPPO1 (SEQ ID NO: 1) variant A215C (AC); experiment: as above; details: Table 7, light, 37° C., 16 to 20 hours, vs wild type at highest herbicide concentration
Protocol: (§2) The mutated CyPPO gene obtained from the Example 2 was transformed to BT3 (ΔPPO) strain which is deficient of PPO activity and cultured in LB media with PPO-inhibiting herbicide, thereby examining whether growth of transformed BT3 was not inhibited.
(§3) BT3 competent cells were transformed with the pET303-ApPPO1 and pET303-MxPPO plasmids and those with a mutation(s) constructed in Example 2 respectively, and were cultured in LB agar media containing carbenicillin (Gold Biotechnology, Co., Ltd.).
(§4) Single colony of E. coli transformed with each CyPPO gene was cultured in 3 ml of LB broth containing carbenicillin overnight, and then was subcultured until absorbance (OD600) reached 0.5 to 1. Then, it was diluted with LB broth to OD600=0.5. Again, the diluted solution was serially diluted 4 times by a factor of one tenth.
(§5) The LB agar media (LB 25 g/l, Bacto agar 15 g/l) containing carbenicillin (100 μg/ml) and 0 to 4,000 μM of various herbicides dissolved in DMSO was prepared. Next, 10 μl of each diluted solution was dropped on the plate and cultured at 37° C. under light (Tables 7, 9 and 10, FIGS. 2 to 6, 13 to 20) or dark (Tables 8 and 11, FIGS. 7 to 12, 21 to 24) for 16 to 20 hours. Then, the extent of tolerance was evaluated.
(§6) The extent of herbicide tolerance of the ApPPO1 or MxPPO mutated genes was evaluated by comparing that of mutated genes with that of ApPPO1 or MxPPO wild type. The relative tolerance was represented with “+” as a factor of 10 times.
(§7) In Tables 7 to 11, tolerance level was presented as ‘−’ of tolerance of wild type and of variants equivalent to that of wild type, and was done as ‘+’ per each 10 fold resistance until ‘+++++’ as maximal resistance. […] A dilution series (OD600=0.5, 0.05, 0.005, 0.0005, 0.00005) was made and spotted on LB agar plates supplemented with herbicides.

[3] = test system: E. coli BT3(ΔPPO) transformed with Auxenochlorella protothecoides ApPPO1 (SEQ ID NO: 1) variant A215L (AL); experiment: as above; details: Table 7, light, 37° C., 16 to 20 hours, vs wild type at highest herbicide concentration
Protocol: as §2, §3, §4, §5, §6, §7

[4] = test system: E. coli BT3(ΔPPO) transformed with Auxenochlorella protothecoides ApPPO1 (SEQ ID NO: 1) variant V360M (VM); experiment: as above; details: Table 7, light, 37° C., 16 to 20 hours, vs wild type at highest herbicide concentration
Protocol: as §2, §3, §4, §5, §6, §7

[5] = test system: E. coli BT3(ΔPPO) transformed with Auxenochlorella protothecoides ApPPO1 (SEQ ID NO: 1) variant Y422T (YT); experiment: as above; details: Table 7, light, 37° C., 16 to 20 hours, vs wild type at highest herbicide concentration
Protocol: as §2, §3, §4, §5, §6, §7

[6] = test system: E. coli BT3(ΔPPO) transformed with Auxenochlorella protothecoides ApPPO1 (SEQ ID NO: 1) variant Y422C (YC); experiment: as above; details: Table 7, light, 37° C., 16 to 20 hours, vs wild type at highest herbicide concentration
Protocol: as §2, §3, §4, §5, §6, §7

[7] = test system: E. coli BT3(ΔPPO) transformed with Auxenochlorella protothecoides ApPPO1 (SEQ ID NO: 1) variant Y422M (YM); experiment: as above; details: Table 7, light, 37° C., 16 to 20 hours, vs wild type at highest herbicide concentration
Protocol: as §2, §3, §4, §5, §6, §7

[8] = test system: E. coli BT3(ΔPPO) transformed with Auxenochlorella protothecoides ApPPO1 (SEQ ID NO: 1) variant Y422I (YI); details: Table 7, light, 37° C., 16 to 20 hours, vs wild type at highest herbicide concentration
Protocol: as §2, §3, §4, §5, §6, §7

[9] = test system: E. coli BT3(ΔPPO) transformed with Auxenochlorella protothecoides ApPPO1 (SEQ ID NO: 1) variant Y422L (YL); experiment: Herbicide tolerance test in PPO-deficient E. coli BT3(ΔPPO), growth on plates; details: Table 7, light, 37° C., 16 to 20 hours, vs wild type at highest herbicide concentration
[10] = test system: E. coli BT3(ΔPPO) transformed with Myxococcus xanthus MxPPO wild type, SEQ ID NO: 3; experiment: as above; details: MxPPO WT, Table 9; light; tiafenacil to 2000 μM, saflufenacil to 200 μM, flumioxazin to 100 μM
Protocol: as §1

[11] = test system: E. coli BT3(ΔPPO) transformed with Myxococcus xanthus MxPPO (SEQ ID NO: 3) variant A170C; experiment: as above; details: Table 9, light, tiafenacil to 2000 μM, saflufenacil to 200 μM, flumioxazin to 100 μM
Protocol: as §2, §3, §4, §5
(§8) The extent of herbicide tolerance of the ApPPO1 or MxPPO mutated genes was evaluated by comparing that of mutated genes with that of ApPPO1 or MxPPO wild type. […]

[12] = test system: E. coli BT3(ΔPPO) transformed with Myxococcus xanthus MxPPO (SEQ ID NO: 3) variant A170L; experiment: as above; details: Table 9, light, tiafenacil to 2000 μM, saflufenacil to 200 μM, flumioxazin to 100 μM
Protocol: as §2, §3, §4, §5, §8

[13] = test system: E. coli BT3(ΔPPO) transformed with Myxococcus xanthus MxPPO (SEQ ID NO: 3) variant I311M; experiment: as above; details: Table 9, light, tiafenacil to 2000 μM, saflufenacil to 200 μM, flumioxazin to 100 μM
Protocol: as §2, §3, §4, §5, §8

[14] = test system: E. coli BT3(ΔPPO) transformed with Myxococcus xanthus MxPPO (SEQ ID NO: 3) variant M365I; experiment: as above; details: Table 9, light, tiafenacil to 2000 μM, saflufenacil to 200 μM, flumioxazin to 100 μM
Protocol: as §2, §3, §4, §5, §8

[15] = test system: E. coli BT3(ΔPPO) transformed with Myxococcus xanthus MxPPO (SEQ ID NO: 3) variant M365L; experiment: as above; details: Table 9, light, tiafenacil to 2000 μM, saflufenacil to 200 μM, flumioxazin to 100 μM
Protocol: as §2, §3, §4, §5, §8

[16] = test system: E. coli BT3(ΔPPO) transformed with Myxococcus xanthus MxPPO (SEQ ID NO: 3) variant M365V; experiment: as above; details: Table 9, light, tiafenacil to 2000 μM, saflufenacil to 200 μM, flumioxazin to 100 μM
Protocol: as §2, §3, §4, §5, §8

| SMILES | relative herbicide tolerance level [1] | relative herbicide tolerance level [2] | relative herbicide tolerance level [3] | relative herbicide tolerance level [4] | relative herbicide tolerance level [5] | relative herbicide tolerance level [6] | relative herbicide tolerance level [7] | relative herbicide tolerance level [8] | relative herbicide tolerance level [9] | relative herbicide tolerance level [10] | relative herbicide tolerance level [11] | relative herbicide tolerance level [12] | relative herbicide tolerance level [13] | relative herbicide tolerance level [14] | relative herbicide tolerance level [15] | relative herbicide tolerance level [16] |
| --- | --- | --- | --- | --- | --- | --- | --- | --- | --- | --- | --- | --- | --- | --- | --- | --- |
| CS(=O)(=O)NC(=O)c1cc(Oc2ccc(C(F)(F)F)cc2Cl)ccc1[N+](=O)[O-] [Fomesafen, fomesafen] | − | + (1-9 fold higher tolerance) | +++ (100-999 fold higher tolerance) | + (1-9 fold higher tolerance) | + (1-9 fold higher tolerance) | ++ (10-99 fold higher tolerance) | + (1-9 fold higher tolerance) | + (1-9 fold higher tolerance) | + (1-9 fold higher tolerance) |  |  |  |  |  |  |  |
| O=C(O)c1cc(Oc2ccc(C(F)(F)F)cc2Cl)ccc1[N+](=O)[O-] [acifluorfen] | − | ++ (10-99 fold higher tolerance) | +++ (100-999 fold higher tolerance) | ++ (10-99 fold higher tolerance) | + (1-9 fold higher tolerance) | ++ (10-99 fold higher tolerance) | ++ (10-99 fold higher tolerance) | + (1-9 fold higher tolerance) | ++ (10-99 fold higher tolerance) |  |  |  |  |  |  |  |
| CC(C)=C1OC(=O)N(c2cc(OC3CCCC3)c(Cl)cc2F)C1=O [pentoxazone] | − | + (1-9 fold higher tolerance) |  | + (1-9 fold higher tolerance) |  | +++ (100-999 fold higher tolerance) |  | ++ (10-99 fold higher tolerance) |  |  |  |  |  |  |  |  |
| C#CCN(C)c1c(C#N)cnn1-c1nn2c(c1Cl)CCCC2 [pyraclonil] | − | + (1-9 fold higher tolerance) | ++ (10-99 fold higher tolerance) | + (1-9 fold higher tolerance) | + (1-9 fold higher tolerance) | ++ (10-99 fold higher tolerance) | ++ (10-99 fold higher tolerance) | + (1-9 fold higher tolerance) | ++ (10-99 fold higher tolerance) |  |  |  |  |  |  |  |
| CCOC(=O)COc1cc(-c2nn(C)c(OC(F)F)c2Cl)c(F)cc1Cl [pyraflufenethyl, pyraflufen-ethyl] | − |  | +++ (100-999 fold higher tolerance) |  |  | +++ (100-999 fold higher tolerance) |  | ++ (10-99 fold higher tolerance) |  |  |  |  |  |  |  |  |
| CC(C)N(C)S(=O)(=O)NC(=O)c1cc(-n2c(=O)cc(C(F)(F)F)n(C)c2=O)c(F)cc1Cl [saflufenacil] | − | + (1-9 fold higher tolerance) | ++++ (1,000-9,999 fold higher tolerance) | +++ (100-999 fold higher tolerance) | ++++ (1,000-9,999 fold higher tolerance) | +++ (100-999 fold higher tolerance) | +++++ (more than 10,000 fold higher tolerance) | +++++ (more than 10,000 fold higher tolerance) | ++++ (1,000-9,999 fold higher tolerance) | − | +++ (100-999 fold higher tolerance) | ++ (10-99 fold higher tolerance) | ++ (10-99 fold higher tolerance) | ++ (10-99 fold higher tolerance) | ++ (10-99 fold higher tolerance) | +++ (100-999 fold higher tolerance) |
